Legend:
Design in all cases: scale not given here
[1] = tested on: ECHOG Barnyardgrass; assay: Postemergence herbicidal evaluation, ECHOG; type: in vivo, Echinochloa crus-galli, (L.) Beau; details: postemergence spray, rated about two-three weeks after treatment
How it was run: (§1)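 Plants are raised for roughly two weeks, then treated postemergence with compound dispersed in acetone/water (80/20) plus 1.0% seed oil adjuvant, at rates of about 0.006 kg to 0.400 kg per hectare. After greenhouse care, damage is scored two to three weeks later.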

[2] = tested on: SETVI Foxtail, Green; assay: Postemergence herbicidal evaluation, SETVI; type: in vivo, Setaria viridis, (L.) Beau; details: postemergence spray, rated about two-three weeks after treatment
How it was run: as §1

[3] = tested on: ZEAMX Corn, Field; assay: Preemergence herbicidal evaluation, ZEAMX; type: in vivo, Zea mays, L. (Sammel-Bezeichnung); details: preemergence
How it was run: (§2)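 Preemergence soil spray: aqueous acetone, ~0.013–0.800 kg/ha, applied right after sowing (seed/potting-soil mix over ~1 in soil). Greenhouse, routine watering. Scored 4–5 wk post-treatment on a rating scale.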

[4] = tested on: ABUTH Velvetleaf; assay: Preemergence herbicidal evaluation, ABUTH; type: in vivo, Abutilon theophrasti, Medic.; details: preemergence
How it was run: as §2

[5] = tested on: IPOHE Morningglory, Ivyleaf; assay: Postemergence herbicidal evaluation, IPOHE; type: in vivo, Ipomoea hederacea, (L.) Jacq.; details: postemergence spray, rated about two-three weeks after treatment
How it was run: as §1

[6] = tested on: ECHOG Barnyardgrass; assay: Preemergence herbicidal evaluation, ECHOG; type: in vivo, Echinochloa crus-galli, (L.) Beau; details: preemergence
How it was run: as §2

[7] = tested on: CHEAL Lambsquarters, Common; assay: Postemergence herbicidal evaluation, CHEAL; type: in vivo, Chenopodium album, L.; details: postemergence spray, rated about two-three weeks after treatment
How it was run: as §1

[8] = tested on: GLXMAW Soybean, Williams; assay: Preemergence herbicidal evaluation, GLXMAW; type: in vivo, Glycine max, (L.) Merr. cv Williams; details: preemergence
How it was run: as §2

[9] = tested on: GALAP Galium; assay: Preemergence herbicidal evaluation, GALAP; type: in vivo, Galium aparine; details: preemergence
How it was run: as §2

[10] = tested on: ABUTH Velvetleaf; assay: Postemergence herbicidal evaluation, ABUTH; type: in vivo, Abutilon theophrasti, Medic.; details: postemergence spray, rated about two-three weeks after treatment
How it was run: as §1

[11] = tested on: CASOB Sicklepod; assay: Preemergence herbicidal evaluation, CASOB; type: in vivo, Cassia obtusifolia, L.; details: preemergence
How it was run: as §2

[12] = tested on: CHEAL Lambsquarters, Common; assay: Preemergence herbicidal evaluation, CHEAL; type: in vivo, Chenopodium album, L.; details: preemergence
How it was run: as §2

[13] = tested on: TRZAWR Wheat, Winter, cv Riband; assay: Postemergence herbicidal evaluation, TRZAWR; type: in vivo, Triticum aestivum; details: postemergence spray, rated about two-three weeks after treatment
How it was run: as §1

[14] = tested on: GALAP Galium; assay: Postemergence herbicidal evaluation, GALAP; type: in vivo, Galium aparine; details: postemergence spray, rated about two-three weeks after treatment
How it was run: as §1

[15] = tested on: IPOHE Morningglory, Ivyleaf; assay: Preemergence herbicidal evaluation, IPOHE; type: in vivo, Ipomoea hederacea, (L.) Jacq.; details: preemergence
How it was run: as §2

[16] = tested on: ZEAMX Corn, Field; assay: Postemergence herbicidal evaluation, ZEAMX; type: in vivo, Zea mays, L. (Sammel-Bezeichnung); details: postemergence spray, rated about two-three weeks after treatment
How it was run: as §1

[17] = tested on: GLXMAW Soybean, Williams; assay: Postemergence herbicidal evaluation, GLXMAW; type: in vivo, Glycine max, (L.) Merr. cv Williams; details: postemergence spray, rated about two-three weeks after treatment
How it was run: as §1

[18] = tested on: CASOB Sicklepod; assay: Postemergence herbicidal evaluation, CASOB; type: in vivo, Cassia obtusifolia, L.; details: postemergence spray, rated about two-three weeks after treatment
How it was run: as §1

[19] = tested on: TRZAWR Wheat, Winter, cv Riband; assay: Preemergence herbicidal evaluation, TRZAWR; type: in vivo, Triticum aestivum; details: preemergence
How it was run: as §2

[20] = tested on: SETVI Foxtail, Green; assay: Preemergence herbicidal evaluation, SETVI; type: in vivo, Setaria viridis, (L.) Beau; details: preemergence
How it was run: as §2

[21] = tested on: AMBEL Ragweed, Common; assay: Postemergence herbicidal evaluation, AMBEL; type: in vivo, Ambrosia artemisifolia, L.; details: postemergence spray, rated about two-three weeks after treatment
How it was run: as §1

[22] = tested on: ORYSAT Rice, Tebonnet; assay: Postemergence herbicidal evaluation, ORYSAT; type: in vivo, Oryza sativa, (L.); details: postemergence spray, rated about two-three weeks after treatment
How it was run: as §1

[23] = tested on: ORYSAT Rice, Tebonnet; assay: Preemergence herbicidal evaluation, ORYSAT; type: in vivo, Oryza sativa, (L.); details: preemergence
How it was run: as §2

[24] = tested on: AMBEL Ragweed, Common; assay: Preemergence herbicidal evaluation, AMBEL; type: in vivo, Ambrosia artemisifolia, L.; details: preemergence
How it was run: as §2

## Cc1ccc(-n2nnc3cc(F)c(-n4c(=O)cc(C(F)(F)F)n(C)c4=O)cc32)cc1 [Example 19]
[1]; 0.008 kg/ha
  Postemergence herbicidal rating ECHCG: 0.0
[1]; 0.016 kg/ha
  Postemergence herbicidal rating ECHCG: 0.0
[1]; 0.032 kg/ha
  Postemergence herbicidal rating ECHCG: 0.0
[1]; 0.062 kg/ha
  Postemergence herbicidal rating ECHCG: 0.0
[2]; 0.008 kg/ha
  Postemergence herbicidal rating SETVI: 0.0
[2]; 0.016 kg/ha
  Postemergence herbicidal rating SETVI: 0.0
[2]; 0.032 kg/ha
  Postemergence herbicidal rating SETVI: 0.0
[2]; 0.062 kg/ha
  Postemergence herbicidal rating SETVI: 3.0
[3]; rate 0.016 kg/ha
  ZEAMX herbicidal rating: 1.0
[3]; rate 0.032 kg/ha
  ZEAMX herbicidal rating: 1.5
[3]; rate 0.062 kg/ha
  ZEAMX herbicidal rating: 4.0
[3]; rate 0.125 kg/ha
  ZEAMX herbicidal rating: 6.5
[4]; rate 0.016 kg/ha
  ABUTH herbicidal rating: 1.0
[4]; rate 0.032 kg/ha
  ABUTH herbicidal rating: 6.5
[4]; rate 0.062 kg/ha
  ABUTH herbicidal rating: 9.0
[4]; rate 0.125 kg/ha
  ABUTH herbicidal rating: 9.0
[5]; 0.008 kg/ha
  Postemergence herbicidal rating IPOHE: 4.0
[5]; 0.016 kg/ha
  Postemergence herbicidal rating IPOHE: 4.0
[5]; 0.032 kg/ha
  Postemergence herbicidal rating IPOHE: 9.0
[5]; 0.062 kg/ha
  Postemergence herbicidal rating IPOHE: 9.0
[6]; rate 0.016 kg/ha
  ECHCG herbicidal rating: 0.5
[6]; rate 0.032 kg/ha
  ECHCG herbicidal rating: 4.0
[6]; rate 0.062 kg/ha
  ECHCG herbicidal rating: 7.0
[6]; rate 0.125 kg/ha
  ECHCG herbicidal rating: 9.0
[7]; 0.008 kg/ha
  Postemergence herbicidal rating CHEAL: 1.0
[7]; 0.016 kg/ha
  Postemergence herbicidal rating CHEAL: 2.0
[7]; 0.032 kg/ha
  Postemergence herbicidal rating CHEAL: 3.0
[7]; 0.062 kg/ha
  Postemergence herbicidal rating CHEAL: 5.0
[8]; rate 0.016 kg/ha
  GLXMAW herbicidal rating: 0.5
[8]; rate 0.032 kg/ha
  GLXMAW herbicidal rating: 1.5
[8]; rate 0.062 kg/ha
  GLXMAW herbicidal rating: 2.5
[8]; rate 0.125 kg/ha
  GLXMAW herbicidal rating: 4.0
[9]; rate 0.016 kg/ha
  GALAP herbicidal rating: 0.0
[9]; rate 0.032 kg/ha
  GALAP herbicidal rating: 0.0
[9]; rate 0.062 kg/ha
  GALAP herbicidal rating: 0.0
[9]; rate 0.125 kg/ha
  GALAP herbicidal rating: 9.0
[10]; 0.008 kg/ha
  Postemergence herbicidal rating ABUTH: 9.0
[10]; 0.016 kg/ha
  Postemergence herbicidal rating ABUTH: 9.0
[10]; 0.032 kg/ha
  Postemergence herbicidal rating ABUTH: 9.0
[10]; 0.062 kg/ha
  Postemergence herbicidal rating ABUTH: 9.0
[11]; rate 0.016 kg/ha
  CASOB herbicidal rating: 1.0
[11]; rate 0.032 kg/ha
  CASOB herbicidal rating: 1.5
[11]; rate 0.062 kg/ha
  CASOB herbicidal rating: 1.5
[11]; rate 0.125 kg/ha
  CASOB herbicidal rating: 1.0
[12]; rate 0.016 kg/ha
  CHEAL herbicidal rating: 9.0
[12]; rate 0.032 kg/ha
  CHEAL herbicidal rating: 9.0
[12]; rate 0.062 kg/ha
  CHEAL herbicidal rating: 9.0
[12]; rate 0.125 kg/ha
  CHEAL herbicidal rating: 9.0
[13]; 0.008 kg/ha
  Postemergence herbicidal rating TRZAWR: 2.5
[13]; 0.016 kg/ha
  Postemergence herbicidal rating TRZAWR: 3.5
[13]; 0.032 kg/ha
  Postemergence herbicidal rating TRZAWR: 4.0
[13]; 0.062 kg/ha
  Postemergence herbicidal rating TRZAWR: 4.5
[14]; 0.008 kg/ha
  Postemergence herbicidal rating GALAP: 0.0
[14]; 0.016 kg/ha
  Postemergence herbicidal rating GALAP: 3.0
[14]; 0.032 kg/ha
  Postemergence herbicidal rating GALAP: 4.0
[14]; 0.062 kg/ha
  Postemergence herbicidal rating GALAP: 4.0
[15]; rate 0.016 kg/ha
  IPOHE herbicidal rating: 1.0
[15]; rate 0.032 kg/ha
  IPOHE herbicidal rating: 1.5
[15]; rate 0.062 kg/ha
  IPOHE herbicidal rating: 5.5
[15]; rate 0.125 kg/ha
  IPOHE herbicidal rating: 8.0
[16]; 0.008 kg/ha
  Postemergence herbicidal rating ZEAMX: 4.5
[16]; 0.016 kg/ha
  Postemergence herbicidal rating ZEAMX: 4.5
[16]; 0.032 kg/ha
  Postemergence herbicidal rating ZEAMX: 5.0
[16]; 0.062 kg/ha
  Postemergence herbicidal rating ZEAMX: 5.5
[17]; 0.008 kg/ha
  Postemergence herbicidal rating GLXMAW: 4.5
[17]; 0.016 kg/ha
  Postemergence herbicidal rating GLXMAW: 5.5
[17]; 0.032 kg/ha
  Postemergence herbicidal rating GLXMAW: 6.5
[17]; 0.062 kg/ha
  Postemergence herbicidal rating GLXMAW: 7.5
[18]; 0.008 kg/ha
  Postemergence herbicidal rating CASOB: 0.0
[18]; 0.016 kg/ha
  Postemergence herbicidal rating CASOB: 0.0
[18]; 0.032 kg/ha
  Postemergence herbicidal rating CASOB: 2.0
[18]; 0.062 kg/ha
  Postemergence herbicidal rating CASOB: 2.0
[19]; rate 0.016 kg/ha
  TRZAWR herbicidal rating: 0.0
[19]; rate 0.032 kg/ha
  TRZAWR herbicidal rating: 1.0
[19]; rate 0.062 kg/ha
  TRZAWR herbicidal rating: 2.0
[19]; rate 0.125 kg/ha
  TRZAWR herbicidal rating: 3.0
[20]; rate 0.016 kg/ha
  SETVI herbicidal rating: 4.5
[20]; rate 0.032 kg/ha
  SETVI herbicidal rating: 7.0
[20]; rate 0.062 kg/ha
  SETVI herbicidal rating: 9.0
[20]; rate 0.125 kg/ha
  SETVI herbicidal rating: 9.0
[21]; 0.008 kg/ha
  Postemergence herbicidal rating AMBEL: 0.0
[21]; 0.016 kg/ha
  Postemergence herbicidal rating AMBEL: 1.0
[21]; 0.032 kg/ha
  Postemergence herbicidal rating AMBEL: 4.0
[21]; 0.062 kg/ha
  Postemergence herbicidal rating AMBEL: 5.0
[22]; 0.008 kg/ha
  Postemergence herbicidal rating ORYSAT: 2.0
[22]; 0.016 kg/ha
  Postemergence herbicidal rating ORYSAT: 2.5
[22]; 0.032 kg/ha
  Postemergence herbicidal rating ORYSAT: 3.0
[22]; 0.062 kg/ha
  Postemergence herbicidal rating ORYSAT: 4.0
[23]; rate 0.016 kg/ha
  ORYSAT herbicidal rating: 0.0
[23]; rate 0.032 kg/ha
  ORYSAT herbicidal rating: 0.5
[23]; rate 0.062 kg/ha
  ORYSAT herbicidal rating: 1.5
[23]; rate 0.125 kg/ha
  ORYSAT herbicidal rating: 2.0
[24]; rate 0.016 kg/ha
  AMBEL herbicidal rating: 4.5
[24]; rate 0.032 kg/ha
  AMBEL herbicidal rating: 5.5
[24]; rate 0.062 kg/ha
  AMBEL herbicidal rating: 8.0
[24]; rate 0.125 kg/ha
  AMBEL herbicidal rating: 9.0

Source: US20020111274A1, “1-alkyl-3-[1-(substituted phenyl) benzotriazol-6-yl] uracils” (BASF Aktiengesellschaft, priority 2000, published 2002)
